# Laboratory results: ChEMBL document CHEMBL5226325, “Optimization of a Screening Hit toward M2912, an Oral Tankyrase Inhibitor with Antitumor Activity in Colorectal Cancer Models” (J Med Chem, 2021)
# The source made the active and inactive calls. The rule behind the calls is not given here.
# Key:
# COLO 320 [1] = assay: Antitumor activity against human COLO 320 cells xenografted in CB17-SCID mouse assessed as tumor growth inhibition at 20 mg/kg, po, administered twice daily via gavage and measured twice weekly; assay type: functional, organism-based
# [2] = biological target: Protein mono-ADP-ribosyltransferase PARP10 (Homo sapiens, UniProt Q53GL7); assay: Inhibition of human PARP10 by chemiluminescence assay
# Sequence of Protein mono-ADP-ribosyltransferase PARP10 (Q53GL7 whole entry): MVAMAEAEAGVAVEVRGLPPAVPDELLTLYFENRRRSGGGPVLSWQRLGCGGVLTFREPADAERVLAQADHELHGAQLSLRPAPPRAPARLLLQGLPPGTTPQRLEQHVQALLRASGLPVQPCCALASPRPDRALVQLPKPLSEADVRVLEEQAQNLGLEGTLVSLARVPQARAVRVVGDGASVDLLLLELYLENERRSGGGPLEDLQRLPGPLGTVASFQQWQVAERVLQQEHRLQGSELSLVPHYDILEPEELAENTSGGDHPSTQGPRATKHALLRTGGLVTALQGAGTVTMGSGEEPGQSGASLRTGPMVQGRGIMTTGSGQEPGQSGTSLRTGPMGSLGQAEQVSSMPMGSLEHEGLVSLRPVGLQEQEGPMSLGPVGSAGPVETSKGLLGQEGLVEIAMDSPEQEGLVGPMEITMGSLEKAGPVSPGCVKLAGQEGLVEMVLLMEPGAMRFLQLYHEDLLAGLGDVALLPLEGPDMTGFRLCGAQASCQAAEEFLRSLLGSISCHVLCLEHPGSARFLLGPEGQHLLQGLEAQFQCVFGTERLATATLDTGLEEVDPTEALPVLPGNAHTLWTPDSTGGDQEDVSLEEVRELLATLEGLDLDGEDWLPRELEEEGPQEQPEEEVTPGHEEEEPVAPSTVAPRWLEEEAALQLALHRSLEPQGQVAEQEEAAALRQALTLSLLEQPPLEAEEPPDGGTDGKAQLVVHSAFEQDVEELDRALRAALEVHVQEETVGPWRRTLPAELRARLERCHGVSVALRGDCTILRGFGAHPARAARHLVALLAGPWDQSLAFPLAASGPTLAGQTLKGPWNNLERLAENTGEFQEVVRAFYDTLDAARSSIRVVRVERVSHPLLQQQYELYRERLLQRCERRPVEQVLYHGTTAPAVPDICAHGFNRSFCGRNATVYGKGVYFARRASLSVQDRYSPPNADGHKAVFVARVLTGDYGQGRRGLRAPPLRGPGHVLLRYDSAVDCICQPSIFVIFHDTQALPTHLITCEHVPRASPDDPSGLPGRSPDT
# [3] = Unbound fraction in monkey plasma; assay type: ADME, cell-free, Macaca mulatta; conditions: rhesus monkey
# [4] = Hepatic blood flow in human; assay type: ADME
# [5] = Hepatic blood flow in monkey; assay type: ADME, Macaca mulatta; conditions: rhesus monkey
# [6] = Volume of distribution at steady state in mouse; assay type: ADME, organism-based; conditions: in vivo, read-out: Vdss
# SW480 = assay: Cytotoxicity against human SW480 cells assessed as reduction in cell growth at 0.01 to 10 uM incubated for 14 days by resazurin dye based assay; assay type: functional; conditions: dose 0.01-10 µM, time 14.0 day
# [7] = Volume of distribution at steady state in monkey; assay type: ADME, Macaca mulatta; conditions: rhesus monkey, in vivo; read-out: Vdss
# [8] = Volume of distribution at steady state in rat; assay type: ADME; conditions: in vivo, read-out: Vdss
# [9] = In vivo inhibition of Wnt pathway in Hsd athymic nude mouse xenografted with human DLD1 cells assessed as increase in axin2 protein level in tumor at 10 to 30 mg/kg, po administered as single dose and measured after 18 hrs; assay type: functional, organism-based; conditions: DLD-1, dose 10-30 mg/kg
# [10] = Toxicity in […] xenografted with human HT55 cells assessed as reduction in body weight at 20 mg/kg, po administered twice daily via gavage for 20 days and measured twice weekly; assay type: organism-based; conditions: in vivo, 480 h, time 20 day
# [11] = In vivo inhibition of Wnt pathway in Hsd athymic nude mouse xenografted with human DLD1 cells assessed as increase in tankyrase protein level in tumor at 10 to 30 mg/kg, po administered as single dose and measured after 2 to 8 hrs; assay type: functional, organism-based; conditions: DLD-1, dose 10-30 mg/kg, time 2-8 hrs
# [12] = Toxicity in CB17-SCID mouse xenografted with human COLO 320 cells assessed as drug tolerance at 15 mg/kg, po administered twice daily via gavage for 20 days; assay type: organism-based; conditions: in vivo, 480 h, time 20 day
# HCT-15 = assay: Cytotoxicity against human HCT-15 cells assessed as reduction in cell growth at 0.01 to 10 uM incubated for 14 days by resazurin dye based assay; assay type: functional; conditions: dose 0.01-10 µM, time 14.0 day
# [13] = Oral bioavailability in rat; assay type: ADME, organism-based; conditions: in vivo
# [14] = biological target: T1, Poly [ADP-ribose] polymerase 1 (Homo sapiens, UniProt P09874); assay: Inhibition of PARP-1 (unknown origin) using biotinylated NAD and NAD as substrate assessed as inhibition of auto-PARsylation incubated for 150 mins by TR-FRET assay
# T1 sequence (P09874 whole entry): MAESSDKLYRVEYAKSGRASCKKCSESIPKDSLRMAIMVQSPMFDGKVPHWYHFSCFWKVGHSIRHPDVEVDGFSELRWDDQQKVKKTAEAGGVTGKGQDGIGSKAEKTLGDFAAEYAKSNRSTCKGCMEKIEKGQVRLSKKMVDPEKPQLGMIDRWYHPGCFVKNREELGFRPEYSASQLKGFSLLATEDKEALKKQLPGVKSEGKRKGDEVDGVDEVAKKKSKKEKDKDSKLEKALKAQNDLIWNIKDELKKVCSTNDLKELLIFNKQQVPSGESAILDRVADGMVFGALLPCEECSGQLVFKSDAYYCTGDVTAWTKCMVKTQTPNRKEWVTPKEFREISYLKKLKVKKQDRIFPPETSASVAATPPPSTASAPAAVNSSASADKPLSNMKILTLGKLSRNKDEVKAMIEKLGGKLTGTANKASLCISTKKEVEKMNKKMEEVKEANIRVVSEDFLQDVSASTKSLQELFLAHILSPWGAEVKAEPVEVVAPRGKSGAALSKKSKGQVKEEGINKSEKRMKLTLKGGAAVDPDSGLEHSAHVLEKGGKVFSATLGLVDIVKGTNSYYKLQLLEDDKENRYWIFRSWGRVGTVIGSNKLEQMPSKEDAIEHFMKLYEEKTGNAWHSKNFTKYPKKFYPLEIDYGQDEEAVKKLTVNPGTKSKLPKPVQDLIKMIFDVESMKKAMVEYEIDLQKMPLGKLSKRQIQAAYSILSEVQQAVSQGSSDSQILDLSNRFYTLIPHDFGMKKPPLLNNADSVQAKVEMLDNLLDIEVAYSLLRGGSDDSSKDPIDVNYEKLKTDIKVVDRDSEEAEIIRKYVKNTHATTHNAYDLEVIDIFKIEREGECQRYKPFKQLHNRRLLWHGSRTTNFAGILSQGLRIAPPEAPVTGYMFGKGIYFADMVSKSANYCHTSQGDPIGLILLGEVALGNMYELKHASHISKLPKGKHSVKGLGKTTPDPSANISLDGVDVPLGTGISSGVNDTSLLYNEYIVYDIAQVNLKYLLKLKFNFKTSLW
# [15] = In vivo inhibition of Wnt pathway in Hsd athymic nude mouse xenografted with human DLD1 cells assessed as reduction in beta-catenin level in tumor at 10 to 30 mg/kg, po administered as single dose and measured after 8 hrs; assay type: functional, organism-based; conditions: DLD-1, dose 10-30 mg/kg
# HT55 = assay: Cytotoxicity against human HT55 cells assessed as reduction in cell growth incubated for 14 days by resazurin dye based assay; assay type: functional; conditions: time 14.0 day
# [16] = biological target: Poly [ADP-ribose] polymerase 2 (Homo sapiens, UniProt Q9UGN5); assay: Inhibition of N-terminal GST-tagged human recombinant PARP2 (2 to 583 residues) expressed in baculovirus infected Sf9 insect cells by chemiluminescence assay
# Sequence of Poly [ADP-ribose] polymerase 2 (Q9UGN5 whole entry, the tested form may be a part): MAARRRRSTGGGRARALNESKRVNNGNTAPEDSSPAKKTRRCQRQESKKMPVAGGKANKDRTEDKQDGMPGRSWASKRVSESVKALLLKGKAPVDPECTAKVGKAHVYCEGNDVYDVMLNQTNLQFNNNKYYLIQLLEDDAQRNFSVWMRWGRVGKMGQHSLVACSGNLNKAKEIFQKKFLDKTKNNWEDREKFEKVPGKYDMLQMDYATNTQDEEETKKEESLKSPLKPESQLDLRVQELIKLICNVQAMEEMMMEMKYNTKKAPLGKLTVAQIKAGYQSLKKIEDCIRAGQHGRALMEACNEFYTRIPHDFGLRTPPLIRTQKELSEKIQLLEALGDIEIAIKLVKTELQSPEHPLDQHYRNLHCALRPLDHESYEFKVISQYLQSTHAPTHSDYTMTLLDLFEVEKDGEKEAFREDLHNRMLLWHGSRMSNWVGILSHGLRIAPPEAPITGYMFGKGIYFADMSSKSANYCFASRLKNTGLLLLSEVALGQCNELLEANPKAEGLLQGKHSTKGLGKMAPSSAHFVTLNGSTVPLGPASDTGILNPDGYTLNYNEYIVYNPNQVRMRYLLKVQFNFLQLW
# [17] = Half life in monkey; assay type: ADME, Macaca mulatta; conditions: rhesus monkey, in vivo
# SW-620 = assay: Cytotoxicity against human SW620 cells assessed as reduction in cell growth at 0.01 to 10 uM incubated for 14 days by resazurin dye based assay; assay type: functional; conditions: dose 0.01-10 µM, time 14.0 day
# COLO 320 [18] = assay: Cytotoxicity against human COLO 320 cells assessed as reduction in cell growth incubated for 14 days by resazurin dye based assay; assay type: functional; conditions: time 14.0 day
# [19] = Toxicity in CB17-SCID mouse xenografted with human COLO 320 cells assessed as reduction in body weight at 20 mg/kg, po administered twice daily via gavage for 20 days and measured twice weekly; assay type: organism-based; conditions: in vivo, 480 h, time 20 day
# [20] = biological target: T1, Poly [ADP-ribose] polymerase 1; assay: Inhibition of N-terminal GST-tagged human recombinant PARP1 (2 to 1014 residues) expressed in Sf9 insect cells by chemiluminescence assay
# [21] = Toxicity in CD-1 nude mouse xenografted with human HT55 cells assessed as drug tolerance at 15 mg/kg, po administered twice daily via gavage for 20 days; assay type: organism-based; conditions: in vivo, 480 h, time 20 day
# [22] = Oral bioavailability in dog; assay type: ADME, organism-based, Canis lupus familiaris; conditions: in vivo
# [23] = Half life in mouse; assay type: ADME, organism-based; conditions: in vivo
# [24] = Half life in human; assay type: ADME
# [25] = In vivo inhibition of Wnt pathway in Hsd athymic nude mouse xenografted with human DLD1 cells assessed as increase in tankyrase protein level in tumor at 10 to 30 mg/kg, po administered as single dose and measured after 18 hrs; assay type: functional, organism-based; conditions: DLD-1, dose 10-30 mg/kg
compound,measurement,setting,value
Cc1ccc2c(=O)[nH]c(-c3ccc(C(C)(C)O)cc3)cn12,Activity,COLO 320 [1],Active
same,IC50,[2],2900 nM
same,fraction unbound,[3],0.21
same,QH,[4],17%
same,QH,[5],99%
same,Vd,[6],2.43 L/kg
same,Activity,SW480,inactive
same,Vd,[7],3.15 L/kg
same,Vd,[8],0.91 L/kg
same,inhibition,[9],inactive
same,Activity,[10],Non-Toxic
same,inhibition,[11],Active
same,Activity,[12],Non-Toxic
same,Activity,HCT-15,inactive
same,bioavailability,[13],41%
same,IC50,[14],928 nM
same,inhibition,[15],Active
same,Activity,HT55,Dose-Dependent Effect
same,IC50,[16],200 nM
same,half-life,[17],1.01 h
same,Activity,SW-620,inactive
same,Activity,COLO 320 [18],Dose-Dependent Effect
same,Activity,[19],Non-Toxic
same,IC50,[20],140 nM
same,Activity,[21],Non-Toxic
same,bioavailability,[22],37%
same,half-life,[23],0.976 h
same,half-life,[24],6.9 h
same,inhibition,[25],inactive
